# In US5723494A, “Derivatives of glutamic and aspartic acids, a method of preparing them, and their use as drugs for enhancing memory and learning” (priority 1993, dated 1998):
# “Also recorded” adds a separate entry of the source.
# How the values were obtained:
# [1] = test system: excitor amino-acid receptors of cortical membranes ("forebrain") of rats; experiment: Inhibition of the specific binding of [3H]-glutamate to rat forebrain membranes
# Outline: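 Forebrain membranes (cortex plus hippocampus, striatum removed) in Tris-HCl pH 7.1 incubated with ³H-L-glutamate and test compound for 20 min at 37 °C. Filtration on glass-fibre filters, scintillation counting; specific binding = total minus binding with 3.6 mM cold L-glutamate.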
# [2] = Memory-enhancement activity in the passive avoidance test in the rat; type: in vivo, rat (male Wistar); details: rat
# [3] = Antiamnesic activity in the mouse (step-down passive avoidance, amnesia induced by ECS); type: in vivo, mouse (CD1 male); details: mouse
# [4] = Antagonism of the amnesic effect induced by scopolamine in the passive avoidance test in the rat; type: in vivo; details: for % Effect vs controls / Latency (STL): FS + SCOP
# Method: 4) Antagonism of the amnesic effect induced by scopolamine in the "passive avoidance" test in the rat.
# The shuttle box equipment was used for passive avoidance as described in Experiment 2 with the following modifications: the compounds (or physiological solutions for the control group) were administered intraperitoneally (IP) 45 min before the training, whereas scopolamine (SCOP) was administered 30 min before the training. The foot shock (FS) consisted of a 0.2 mA shock of 5 sec duration.
# The retest to determine memory was executed 24 h after the training. In each individual experiment, the following groups were used: a control group (-FS), a control group (+FS), a control group (FS+SCOP), 3 treatment groups with different doses of the product under test (FS+SCOP).
smiles,measurement,setting,value
"CC1(C)CCC(NC(=O)[C@@H](N)CCC(=O)O)CC1 [Compound 23, 1-(4,4-dimethylcyclohexyl)-L-isoglutamine[4-amino-5-(4',4'-dimethylcyclohexylamine)-5-oxopentanoic acid (S)]]",Activity in inhibiting the binding of glutamate (in words),[1]; rat cortical membranes,considerable activity in inhibiting the binding of the glutamate
same,IC50,"[1]; rat forebrain membranes, 20 min, 37° C., pH 7.1",13.8 µM
same,change in vivo at 0.1 mg/kg,"[2]; 96 h, 0.1 mg/kg IP, retest on the 4th day, 6 treatments, read-out: % variation vs controls (FS) in step through latency",11%
same,change in vivo at 1 mg/kg,"[2]; 96 h, 1 mg/kg IP, retest on the 4th day, 6 treatments, read-out: % variation vs controls (FS) in step through latency",19%
same,change in vivo at 10 mg/kg,"[2]; 96 h, 10 mg/kg IP, retest on the 4th day, 6 treatments, read-out: % variation vs controls (FS) in step through latency",43%
same,ED30,"[2]; IP, read-out: ED30 (dose increasing the latency time (STL) by 30%)",2.3 mg/kg
same,Activity in increasing the avoidance time (in words),"[2]; IP, retest on the 4th day",considerable activity in increasing the avoidance time
same,Antiamnesic activity (in words),[3]; OS,particularly remarkable
same,change in vivo at 0.1 mg/kg,"[3]; po, 0.1 mg/kg OS, retest 24 h after training, read-out: Reversal of the amnesia (% vs controls), as the increase in the Step Down Latency",20%
same,change in vivo at 1 mg/kg,"[3]; po, 1 mg/kg OS, retest 24 h after training, read-out: Reversal of the amnesia (% vs controls), as the increase in the Step Down Latency",40%
same,change in vivo at 3 mg/kg,"[3]; po, 3 mg/kg OS, retest 24 h after training, read-out: Reversal of the amnesia (% vs controls), as the increase in the Step Down Latency",37%
same,change in vivo at 10 mg/kg,"[3]; po, 10 mg/kg OS, retest 24 h after training, read-out: Reversal of the amnesia (% vs controls), as the increase in the Step Down Latency",61%
same,change in vivo at 30 mg/kg,"[3]; po, 30 mg/kg OS, retest 24 h after training, read-out: Reversal of the amnesia (% vs controls), as the increase in the Step Down Latency",67%
same,ED50,"[3]; po, OS, 60 min before training, read-out: ID50 (antiamnesic activity, dose inhibiting the amnesic effect of the ECS by 50%)",4.6 mg/kg
same,% Effect vs controls,[4]; 0.1 mg/kg IP,7.1%
same,Latency (STL),[4]; 0.1 mg/kg IP,60.8 s
same,% Effect vs controls,[4]; 1 mg/kg IP,38.0%
same,Latency (STL),[4]; 1 mg/kg IP,72.0 s
same,% Effect vs controls,[4]; 10 mg/kg IP,55.8%
same,Latency (STL),[4]; 10 mg/kg IP,78.6 s
same,ED50,"[4]; IP, rat, retest 24 h after training, read-out: ID50 (dose antagonizing the amnesic effect of scopolamine by 50%)",4.7 mg/kg
same,Antagonism of the amnesic effect of scopolamine (in words),"[4]; rat, IP","antagonizes the amnesic effect induced by scopolamine in a dose-dependent manner; also recorded: comparable, in this model, with that of tacrine"
